Tests used:
[1] = target: K-Ras^G12C : hSOS1 interaction (Homo sapiens, UniProt Q07889); assay: Biochemical assay 1: K-Ras^G12C interaction assay with hSOS1 (HTRF); format: binding; conditions: for IC50: read-out: Assay 1 (KRAS-SOS Interaction) activity expressed as IC50; for inhibition at 20 µM: read-out: Assay 1 (KRAS-SOS Interaction) activity expressed as % inhibition at 20 μM
[2] = target: human SOS1 (nucleotide exchange of K-Ras^G12C) (Homo sapiens, UniProt Q07889); assay: Biochemical assay 2: K-Ras^G12C activation assay by hSOS1 at high GTP concentration (HTRF); conditions: high GTP; for IC50: read-out: Assay 2 (KRAS-Activation by SOS high GTP) activity expressed as IC50; for inhibition at 20 µM: read-out: Assay 2 (KRAS-Activation by SOS high GTP) activity expressed as % inhibition at 20 μM
[3] = target: human SOS1 (loading of human K-Ras^G12C-GDP with fluorescent GTP-analog) (Homo sapiens, UniProt Q07889); assay: Biochemical assay 3: K-Ras^G12C activation assay by hSOS1 (HTRF); conditions: no GTP; for IC50: read-out: Assay 3 (KRAS-Activation by SOS no GTP) activity expressed as IC50; for inhibition at 20 µM: read-out: Assay 3 (KRAS-Activation by SOS no GTP) activity expressed as % inhibition at 20 μM

SMILES | IC50 [1] | IC50 [2] | IC50 [3] | inhibition at 20 µM [1] | inhibition at 20 µM [2] | inhibition at 20 µM [3]
COc1cc2nc(C)nc(N[C@@H](C)c3ccc(-c4ccoc4)s3)c2cc1OC (racemic) [Example 153, N-{1-[5-(furan-3-yl)thiophen-2-yl]ethyl}-6,7-dimethoxy-2-methylquinazolin-4-amine] | 2.35 µM | 2.73 µM | 4.1 µM | – | – | –
COc1cc2nc(C)nc(N[C@@H](C)c3ccc(-c4csc5ccccc45)s3)c2cc1OC (racemic) [Example 154, N-{1-[5-(1-benzothiophen-3-yl)thiophen-2-yl]ethyl}-6,7-dimethoxy-2-methylquinazolin-4-amine] | 7.82 µM | 8.78 µM | 12.9 µM | – | – | –
COc1cc2nc(C)nc(N[C@@H](C)c3ccc(-c4cc5ccccc5n4C)s3)c2cc1OC (racemic) [Example 155, 6,7-dimethoxy-2-methyl-N-{1-[5-(1-methyl-1H-indol-2-yl)thiophen-2-yl]ethyl}quinazolin-4-amine] | 0.992 µM | 1.47 µM | 1.64 µM | – | – | –
CCC/C=C/c1ccc([C@H](C)Nc2nc(C)nc3cc(OC)c(OC)cc23)s1 (racemic) [Example 156, 6,7-dimethoxy-2-methyl-N-[1-{5-[(1E)-pent-1-en-1-yl]thiophen-2-yl}ethyl]quinazolin-4-amine] | 4.12 µM | 5.76 µM | 10.8 µM | – | – | –
COc1cc2nc(C)nc(N[C@@H](C)c3ccc(/C=C/C4CCCCC4)s3)c2cc1OC (racemic) [Example 157, N-[1-{5-[(E)-2-cyclohexylethenyl]thiophen-2-yl}ethyl]-6,7-dimethoxy-2-methylquinazolin-4-amine] | – | – | – | 44% | 19% | 12%
COc1cc2nc(C)nc(N[C@@H](C)c3ccc(-c4cccc(/C=C/C#N)c4)s3)c2cc1OC (racemic) [Example 160, (2E)-3-[3-(5-{1-[(6,7-dimethoxy-2-methylquinazolin-4-yl)amino]ethyl}thiophen-2-yl)phenyl]prop-2-enenitrile] | 16.1 µM | – | – | – | 33% | 13%
COc1cc2nc(C)nc(N[C@@H](C)c3ccc(-c4ccc(C)cc4C)s3)c2cc1OC (racemic) [Example 161, N-{1-[5-(2,4-dimethylphenyl)thiophen-2-yl]ethyl}-6,7-dimethoxy-2-methylquinazolin-4-amine] | 4.17 µM | 3.97 µM | 7 µM | – | – | –
COc1cc2nc(C)nc(N[C@@H](C)c3ccc(-c4ccc(C(C)=O)s4)s3)c2cc1OC (racemic) [Example 162, 1-(5′-{1-[(6,7-dimethoxy-2-methylquinazolin-4-yl)amino]ethyl}-2,2′-bithiophen-5-yl)ethanone] | 8.76 µM | 11.6 µM | 16 µM | – | – | –
COc1cc2nc(C)nc(N[C@@H](C)c3ccc(-c4ccccc4NC(C)=O)s3)c2cc1OC (racemic) [Example 166, N-[2-(5-{1-[(6,7-dimethoxy-2-methylquinazolin-4-yl)amino]ethyl}thiophen-2-yl)phenyl]acetamide] | 1.8 µM | 3.68 µM | 4.99 µM | – | – | –
COc1cc2nc(C)nc(N[C@@H](C)c3ccc(-c4ccccc4S(=O)(=O)N(C)C)s3)c2cc1OC (racemic) [Example 169, 2-(5-{1-[(6,7-dimethoxy-2-methylquinazolin-4-yl)amino]ethyl}thiophen-2-yl)-N,N-dimethylbenzenesulfonamide] | 2.16 µM | 3.7 µM | 4.53 µM | – | – | –
COc1cc2nc(C)nc(N[C@@H](C)c3ccc(-c4cccc5[nH]ccc45)s3)c2cc1OC (racemic) [Example 171, N-{1-[5-(1H-indol-4-yl)thiophen-2-yl]ethyl}-6,7-dimethoxy-2-methylquinazolin-4-amine] | 5.59 µM | 3.37 µM | 7.18 µM | – | – | –
COc1ncc(-c2ccc([C@H](C)Nc3nc(C)nc4cc(OC)c(OC)cc34)s2)cn1 (racemic) [Example 172, 6,7-dimethoxy-N-{1-[5-(2-methoxypyrimidin-5-yl)thiophen-2-yl]ethyl}-2-methylquinazolin-4-amine] | 4.07 µM | 7.33 µM | 9.19 µM | – | – | –
COc1cc2nc(C)nc(N[C@@H](C)c3ccc(-c4ccc5c(c4)CCO5)s3)c2cc1OC (racemic) [Example 174, N-{1-[5-(2,3-dihydro-1-benzofuran-5-yl)thiophen-2-yl]ethyl}-6,7-dimethoxy-2-methylquinazolin-4-amine] | 6.92 µM | 9.28 µM | 18.3 µM | – | – | –
COc1cc2nc(C)nc(N[C@@H](C)c3ccc(/C=C/c4ccccc4)s3)c2cc1OC (racemic) [Example 175, 6,7-dimethoxy-2-methyl-N-[1-{5-[(E)-2-phenylethenyl]thiophen-2-yl}ethyl]quinazolin-4-amine] | 17.6 µM | – | – | – | 50% | 44%
C/C=C/c1ccc([C@H](C)Nc2nc(C)nc3cc(OC)c(OC)cc23)s1 (racemic) [Example 177, 6,7-dimethoxy-2-methyl-N-[1-{5-[(1E)-prop-1-en-1-yl]thiophen-2-yl}ethyl]quinazolin-4-amine] | 5.77 µM | 6.7 µM | – | – | – | 49%
COc1cc2nc(C)nc(NC(C)c3ccc(-c4ccccc4)o3)c2cc1OC (single isomer, unassigned) [Example 224, 6,7-dimethoxy-2-methyl-N-[1-(5-phenylfuran-2-yl)ethyl]quinazolin-4-amine, enantiomer] | 3.6 µM | 2.55 µM | 9.37 µM | – | – | –
COc1cc2nc(C)nc(N[C@H](C)c3cc4cccc(OC)c4o3)c2cc1OC (stereo in doubt) [Example 33, 6,7-dimethoxy-N-[1-(7-methoxy-1-benzofuran-2-yl)ethyl]-2-methylquinazolin-4-amine] | – | – | – | 53% | 24% | 9%
COc1cc2nc(C)nc(N[C@@H](C)c3ccc(-c4ccc(N5CCOCC5)cc4)s3)c2cc1OC (stereo in doubt) [Example 43, 6,7-dimethoxy-2-methyl-N-[1-{5-[4-(morpholin-4-yl)phenyl]thiophen-2-yl}ethyl]quinazolin-4-amine] | – | – | – | 30% | 14% | 16%
COc1cc2nc(C)nc(N[C@@H](C)c3ccc(-c4cccc(N5CCOCC5)c4)s3)c2cc1OC (stereo in doubt) [Example 44, 6,7-dimethoxy-2-methyl-N-[1-{5-[3-(morpholin-4-yl)phenyl]thiophen-2-yl}ethyl]quinazolin-4-amine] | – | – | – | 55% | 47% | 25%
CCCOc1ccccc1-c1ccc([C@H](C)Nc2nc(C)nc3cc(OC)c(OC)cc23)s1 (stereo in doubt) [Example 47, 6,7-dimethoxy-2-methyl-N-{1-[5-(2-propoxyphenyl)thiophen-2-yl]ethyl}quinazolin-4-amine] | – | – | – | 40% | 22% | 17%
COc1cc2nc(C)nc(N[C@@H](C)c3ccc(-c4ccccc4)s3)c2cc1OC (stereo in doubt) [Example 70, 6,7-dimethoxy-2-methyl-N-[1-(5-phenylthiophen-2-yl)ethyl]quinazolin-4-amine] | 6.82 µM | 8.62 µM | – | – | – | 47%
COc1cc2nc(C)nc(N[C@@H](C)c3ccc(-c4cc(Cl)cc(Cl)c4)s3)c2cc1OC (stereo in doubt) [Example 122, N-{1-[5-(3,5-dichlorophenyl)thiophen-2-yl]ethyl}-6,7-dimethoxy-2-methylquinazolin-4-amine] | – | – | – | 46% | 17% | 21%
COc1cc2nc(C)nc(N[C@@H](C)c3ccc(-c4cccc(-c5nnc(C)o5)c4)s3)c2cc1OC (stereo in doubt) [Example 126, 6,7-dimethoxy-2-methyl-N-[1-{5-[3-(5-methyl-1,3,4-oxadiazol-2-yl)phenyl]thiophen-2-yl}ethyl]quinazolin-4-amine] | – | – | – | 52% | 31% | 11%
COc1cc(F)cc(-c2ccc([C@H](C)Nc3nc(C)nc4cc(OC)c(OC)cc34)s2)c1 (stereo in doubt) [Example 134, N-{1-[5-(3-fluoro-5-methoxyphenyl)thiophen-2-yl]ethyl}-6,7-dimethoxy-2-methylquinazolin-4-amine] | – | – | – | 43% | 23% | 27%
COc1cc2nc(C)nc(N[C@@H](C)c3ccc(-c4cccc(OCc5ccccc5)c4)s3)c2cc1OC (stereo in doubt) [Example 135, N-[1-{5-[3-(benzyloxy)phenyl]thiophen-2-yl}ethyl]-6,7-dimethoxy-2-methylquinazolin-4-amine] | – | – | – | 28% | 5% | 13%
CCCCOc1cccc(F)c1-c1ccc([C@H](C)Nc2nc(C)nc3cc(OC)c(OC)cc23)s1 (stereo in doubt) [Example 136, N-{1-[5-(2-butoxy-6-fluorophenyl)thiophen-2-yl]ethyl}-6,7-dimethoxy-2-methylquinazolin-4-amine] | – | – | – | 37% | 20% | 18%
COc1cc2nc(C)nc(N[C@@H](C)c3ccc(-c4ccc(C(C)(C)C#N)cc4)s3)c2cc1OC (stereo in doubt) [Example 137, 2-[4-(5-{1-[(6,7-dimethoxy-2-methylquinazolin-4-yl)amino]ethyl}thiophen-2-yl)phenyl]-2-methylpropanenitrile] | – | – | – | 48% | 36% | 32%

From patent publication US20240083857A1, “2-Methyl-Quinazolines” (Bayer Pharma Aktiengesellschaft, priority 2017, published 2024)
